Reference: PubChem BioAssay AID2060885 (Molecular Pharmacology Branch, DTP, NCI, 2025)

System: NCI-H23 complex spheroids with HUVEC/MSC, viability
Experiment: Anticancer human tumor NCI-H23 cell line growth inhibition [RAS];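 note: spheroids exposed to compound for 7 days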;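 for viability, T/C: 100% = DMSO vehicle control viability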
Details: for viability, T/C: stronger effect = lower value
Outline: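 Tumour cells grown as complex spheroids with HUVEC endothelial cells and mesenchymal stem cells, treated with RAS pathway inhibitor combinations. Each agent spans half-log steps from near clinical Cmax, or 10 microM where Cmax is unknown.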

For Cc1nc(N2CCC3(CC2)COC(C)C3N)c(CO)nc1Sc1ccnc(N)c1Cl (centres undefined), which viability, T/C (compound 0.0316 µM) is on record?
The viability, T/C was 103% [middle of 4 runs].

What about the viability, T/C (compound 0.316 µM) of the same compound?
The viability, T/C was 74.3% [middle of 4 runs].

And the viability, T/C (compound 1 µM)?
Its viability, T/C is 61.8% [middle of 4 runs].

And the viability, T/C (compound 3.16 µM)?
The viability, T/C was 52.3% [middle of 4 runs].

What about the viability, T/C (compound 10 µM) of the same compound?
Its viability, T/C is 48.9% [middle of 4 runs].

Which results are given for CC(=O)OC12COC1CC(O)C1(C)C(=O)C(O)C3=C(C)C(OC(=O)C(O)C(NC(=O)OC(C)(C)C)c4ccccc4)CC(O)(C(OC(=O)c4ccccc4)C21)C3(C)C (centres undefined)?
viability, T/C (compound 0.0316 µM): 31.2% [middle of 4 runs]; viability, T/C (compound 0.1 µM): 32.3% [middle of 4 runs]; viability, T/C (compound 0.316 µM): 28.2% [middle of 4 runs]; viability, T/C (compound 1 µM): 34.6% [middle of 4 runs]; viability, T/C (compound 3.16 µM): 50.4% [middle of 4 runs]; viability, T/C (compound 10 µM): 63.5% [middle of 4 runs]; IC50 (curve of compound): < 31.6 nM

Cc1nc(N2CCC3(CC2)COC(C)C3N)c(CO)nc1Sc1ccnc(N)c1Cl (centres undefined) + C=CC(=O)N1CCN(c2nc(OCC3CCCN3C)nc3c(F)c(-c4nc(N)cc(C)c4C(F)(F)F)c(Cl)cc23)C(C)C1 was tested. Which IC50 (curve of first compound, second compound 0.00316 µM) did it give?
Its IC50 is < 31.6 nM.

What about the IC50 (curve of first compound, second compound 0.01 µM) of the same compound?
The IC50 was < 31.6 nM.

And the IC50 (curve of first compound, second compound 0.0316 µM)?
Its IC50 is < 31.6 nM.

And the IC50 (curve of first compound, second compound 0.1 µM)?
The IC50 was < 31.6 nM.

And the IC50 (curve of first compound, second compound 0.316 µM)?
Its IC50 is < 31.6 nM.

And the IC50 (curve of first compound, second compound 1 µM)?
Its IC50 is < 31.6 nM.

What about the viability, T/C (second compound 0.00316 µM, first compound 0.0316 µM) of the same compound?
The viability, T/C was 47.4%.

What about the viability, T/C (second compound 0.00316 µM, first compound 0.1 µM) of the same compound?
Its viability, T/C is 48.5%.

And the viability, T/C (second compound 0.00316 µM, first compound 0.316 µM)?
Its viability, T/C is 32%.

What about the viability, T/C (second compound 0.00316 µM, first compound 1 µM) of the same compound?
Its viability, T/C is 27%.

And the viability, T/C (second compound 0.00316 µM, first compound 3.16 µM)?
The viability, T/C was 31.7%.

What about the viability, T/C (second compound 0.00316 µM, first compound 10 µM) of the same compound?
Its viability, T/C is 25.4%.

And the viability, T/C (second compound 0.01 µM, first compound 0.0316 µM)?
The viability, T/C was 44.3%.

What about the viability, T/C (second compound 0.01 µM, first compound 0.1 µM) of the same compound?
The viability, T/C was 42.3%.

What about the viability, T/C (second compound 0.01 µM, first compound 0.316 µM) of the same compound?
Its viability, T/C is 26.7%.

And the viability, T/C (second compound 0.01 µM, first compound 1 µM)?
The viability, T/C was 28.5%.

What about the viability, T/C (second compound 0.01 µM, first compound 3.16 µM) of the same compound?
Its viability, T/C is 22.6%.

What about the viability, T/C (second compound 0.01 µM, first compound 10 µM) of the same compound?
Its viability, T/C is 16.4%.

What about the viability, T/C (second compound 0.0316 µM, first compound 0.0316 µM) of the same compound?
The viability, T/C was 36%.

And the viability, T/C (second compound 0.0316 µM, first compound 0.1 µM)?
The viability, T/C was 33.6%.

What about the viability, T/C (second compound 0.0316 µM, first compound 0.316 µM) of the same compound?
Its viability, T/C is 24.7%.

And the viability, T/C (second compound 0.0316 µM, first compound 1 µM)?
The viability, T/C was 26.7%.

And the viability, T/C (second compound 0.0316 µM, first compound 3.16 µM)?
Its viability, T/C is 21.1%.

And the viability, T/C (second compound 0.0316 µM, first compound 10 µM)?
Its viability, T/C is 20%.

And the viability, T/C (second compound 0.1 µM, first compound 0.0316 µM)?
The viability, T/C was 37.2%.

And the viability, T/C (second compound 0.1 µM, first compound 0.1 µM)?
Its viability, T/C is 35.5%.

What about the viability, T/C (second compound 0.1 µM, first compound 0.316 µM) of the same compound?
Its viability, T/C is 25.8%.

And the viability, T/C (second compound 0.1 µM, first compound 1 µM)?
Its viability, T/C is 23.9%.

And the viability, T/C (second compound 0.1 µM, first compound 3.16 µM)?
Its viability, T/C is 19.7%.

And the viability, T/C (second compound 0.1 µM, first compound 10 µM)?
The viability, T/C was 17.2%.

And the viability, T/C (second compound 0.316 µM, first compound 0.0316 µM)?
The viability, T/C was 31.1%.

And the viability, T/C (second compound 0.316 µM, first compound 0.1 µM)?
The viability, T/C was 31.6%.

And the viability, T/C (second compound 0.316 µM, first compound 0.316 µM)?
The viability, T/C was 30.2%.

What about the viability, T/C (second compound 0.316 µM, first compound 1 µM) of the same compound?
The viability, T/C was 23.2%.

What about the viability, T/C (second compound 0.316 µM, first compound 3.16 µM) of the same compound?
The viability, T/C was 23.3%.

What about the viability, T/C (second compound 0.316 µM, first compound 10 µM) of the same compound?
Its viability, T/C is 17.5%.

What about the viability, T/C (second compound 1 µM, first compound 0.0316 µM) of the same compound?
The viability, T/C was 36.6%.

And the viability, T/C (second compound 1 µM, first compound 0.1 µM)?
Its viability, T/C is 32.8%.

And the viability, T/C (second compound 1 µM, first compound 0.316 µM)?
Its viability, T/C is 26.6%.

And the viability, T/C (second compound 1 µM, first compound 1 µM)?
The viability, T/C was 18.6%.

What about the viability, T/C (second compound 1 µM, first compound 3.16 µM) of the same compound?
The viability, T/C was 22.7%.

And the viability, T/C (second compound 1 µM, first compound 10 µM)?
The viability, T/C was 17.9%.
